Experimental data taken from US20250064717A1, “MANUFACTURE OF COSMETIC CAROTENOID COMPOSITIONS” (Unibar Corporation, priority 2022, published 2025).
≈ marks a conversion by molar mass, not a printed value.

Legend:
[1] = tested on: Candida albicans (ATCC-10231); test: Antifungal culture microdilution MIC assay; format: cell-based; conditions: ATCC10231, 50% reduction of fungal growth, 48-72 hours
Text: (§1) The anti-fungal activity of CAP-50CR and CAP-1.5SE against Malassezia furfur and Candida albicans are compared with the anti-fungal drug ketoconazole by the minimum inhibitory concentration (“MIC”) method.
(§2) The inhibitory effect assay of CAP-50CR and CAP-1.5SE against Malassezia furfur and Candida albicans may be performed as per a culture microdilution reference method. Ketoconazole, an anti-fungal drug, may be used as the standard. Freeze-dried Candida albicans (ATCC-10231) and Malassezia furfur (ATCC-14521) strains may be used as well. A loopful culture of Malassezia furfur and Candida albicans may be streaked on SDA (Sabouraud Dextrose Agar), and incubated at 35±2° C. and 25±2° C. for 48-72 hours, respectively. Finally, cells may be suspended in a RPMI 1640 medium to obtain a final concentration of 1×10^6 CFU/mL. For the evaluation of inhibitory activity, the effect of CAP-50CR and CAP-1.5SE may be examined against strains of Malassezia furfur and Candida albicans cultured in 96-well microplates at different concentrations of 35±2° C. and 25±2° C., respectively, for 48-72 hours.
(§3) Sterility and growth control may also be used. Yeast growth may be determined in an Enzyme-Linked ImmunoSorbent Assay Microplate Reader at 530 nm. […]

[2] = tested on: Malassezia furfur (ATCC-14521); test: Antifungal culture microdilution MIC assay; format: cell-based; conditions: ATCC14521, 50% reduction of fungal growth, 48-72 hours
Text: as §1, §2, §3

## CC(=O)N1CCN(c2ccc(OCC3COC(Cn4ccnc4)(c4ccc(Cl)cc4Cl)O3)cc2)CC1 (centres unmarked) [Ketoconazole]
[1]
  MIC50: 0.48 µg/mL (≈ 0.903 µM)
[2]
  MIC50: 0.48 µg/mL (≈ 0.903 µM)
